Patent US20160304957A1, “TREATMENT AND MODULATION OF GENE EXPRESSION AND SKIN AGING” (DSM NUTRITIONAL PRODUCTS LTD., priority 2006, published 2016)

Test system: HaCaT human keratinocytes
Assay: Affymetrix GeneChip microarray, transcriptional response to β-carotene and/or UVA
Type: cell-based
Details: β-carotene 1.5 μM
Description: The cell culture experiments were carried out as described. Briefly, a subclone of passage 65 HaCaT keratinocytes, selected for differentiation capacity, was used at passages 16 to 23 after subcloning. 2×10^5 cells were seeded per 60 millimeter dish. Starting the following day, the cells were pretreated for 2 days with β-carotene at 1.5 μM, a typical concentration in human plasma after moderate dietary supplementation)
β-carotene-containing medium was prepared as follows. Fresh all-E-β-carotene (DSM Nutritional Products, Kaiseraugst, Switzerland) stock solution in THF (containing 0.025% BHT; Fluka Chemie A G, Switzerland) was diluted 1:2 with ethanol and added to cell culture medium to a final concentration of 1.5 μM β-carotene. The solvent concentration in the medium was 0.5% for all treatments. β-carotene-containing medium was prepared fresh for the daily medium changes.
On day 3 of the experiment, the cells were irradiated with a Hönle sun lamp Sol 500 (270 kJ/m^2; Dr. Hönle, Germany).
Five independent, factorially designed cell irradiation experiments were analyzed by microarray hybridization. For each experiment, one chip was hybridized per treatment condition. GeneChip® analysis was done as described in [132], which is incorporated by reference, as if recited in full herein. Gene regulation by β-carotene and/or UVA was calculated relative to placebo.
Changes in gene expression were included in further analysis only if the change factor was […], and if unpaired t-tests yielded p values≦0.05. Upregulations by a […] are labeled bold, downregulations by a change factor of […] are labeled bold italics. (Table 1) To identify the pathways affected by the treatments functional information on the genes was retrieved from public literature databases.

SMILES: CC1=C(/C=C/C(C)=C/C=C/C(C)=C/C=C/C=C(C)/C=C/C=C(C)/C=C/C2=C(C)CCCC2(C)C)C(C)(C)CCC1 [β-carotene, All-E-β-carotene]
- UVA induction of MMP-10, microarray (5 hours after UVA, UVA alone 4.6 fold): 3.2 fold
- 5-aminolevulinate synthase (Y00451) change factor (unirradiated): 0.08
- AAC11 (U83857) change factor (unirradiated): −0.6
- AP-2α (M36711) change factor (unirradiated): −0.02
- ATF4; activating transcription factor 4 (AL022312) change factor (unirradiated): 0.11
- BAXγ (L22475) change factor (unirradiated): 0.8
- BAXδ (U19599) change factor (unirradiated): 0.6
- BMP2a; bone morphogenetic protein 2a (bmp-2a) (M22489) change factor (unirradiated): −1.2
- BPAG1; bullous pemphigoid antigen (M69225) change factor (unirradiated): −0.5
- BUB1; mitotic checkpoint kinase (AF053305) change factor (unirradiated): −0.5
- C-FOS (V01512) change factor (unirradiated): −0.14
- C-FOS (V01512, second entry) change factor (unirradiated): −0.16
- C-JUN (J04111) change factor (unirradiated): −0.06
- C/EBPβ; NF-IL6 (X52560) change factor (unirradiated): −0.28
- C/EBPγ (U20240) change factor (unirradiated): −0.09
- C/EBPδ; NF-IL6-β (M83667) change factor (unirradiated): 0.04
- CDK activating kinase (X77743) change factor (unirradiated): −0.01
- CDK-inhibitor p57KIP2 (KIP2) mrna (U22398) change factor (unirradiated): −0.22
- CENP-A; centromere protein-A (U14518) change factor (unirradiated): −0.13
- CENP-E; centromere protein-E (Z15005) change factor (unirradiated): −0.37
- CENP-F; mitosin (U30872) change factor (unirradiated): −0.42
- CEP110; centriole associated protein (AF083322) change factor (unirradiated): 0.15
- CIP2; CDKN3 (L25876) change factor (unirradiated): −0.18
- CLARP; CFLAR, alternatively spliced (AF005775) change factor (unirradiated): −0.09
- COUP-TF II; ARP1; apoA1 regulatory protein (M64497) change factor (unirradiated): 0.33
- COX-2, cyclooxygenase-2 (U04636) change factor (unirradiated): −1.2
- CRADD; death domain containing protein (U84388) change factor (unirradiated): −0.25
- DKK-1; dickkopf-1 (AB020315) change factor (unirradiated): −0.3
- DNA ligase III (X84740) change factor (unirradiated): −0.5
- DNA polymerase α-subunit (X06745) change factor (unirradiated): −0.43
- DNA primase (subunit p58) (X74331) change factor (unirradiated): −0.16
- DNA-PK, catalytic subunit (U47077) change factor (unirradiated): −0.7
- DSC2; desmocollin type 2a and 2b (X56807) change factor (unirradiated): −1.1
- DUSP5 (U15932) change factor (unirradiated): −0.15
- DUSP7 (X93921) change factor (unirradiated): −0.46
- EGFR; precursor of epidermal growth factor receptor (X00588) change factor (unirradiated): −0.6
- ENDOGL-2 (AB020735) change factor (unirradiated): 0.8
- ERBB3 precursor; similar to (H06628) change factor (unirradiated): 0
- ERCC5; excision repair protein (L20046) change factor (unirradiated): −0.48
- ERF-2 (X78992) change factor (unirradiated): 0.31
- FGFR2; FGF receptor 2 (M87770) change factor (unirradiated): 0.08
- FGFR3; FGF receptor (M64347) change factor (unirradiated): −1.1
- FRA-1 (X16707) change factor (unirradiated): 0.14
- FRA-2 (X16706) change factor (unirradiated): −0.7
- GADD34 (U83981) change factor (unirradiated): −0.11
- GADD153 (S62138) change factor (unirradiated): −0.45
- GDF-1; growth/differentiation factor 1 (gdf-1) (M62302) change factor (unirradiated): −0.8
- GEM (U10550) change factor (unirradiated): −2.6
- HB-EGF; heparin-binding egf-like growth factor (M60278) change factor (unirradiated): 0.33
- HER3; epidermal growth factor receptor (her3) (M34309) change factor (unirradiated): −0.28
- HER3; epidermal growth factor receptor (her3) (M34309, second entry) change factor (unirradiated): −0.6
- HM74; PAR1-related (D10923) change factor (unirradiated): 0.18
- HOXA7 (AJj005814) change factor (unirradiated): −0.43
- HOXC6 (S82986) change factor (unirradiated): −0.07
- HOXD4 (X59373) change factor (unirradiated): −0.5
- ID1 (X77956) change factor (unirradiated): −0.01
- ID1 (X77956, second entry) change factor (unirradiated): −0.11
- ID3; HEIR1 (AL021154) change factor (unirradiated): −0.43
- ID-2H (D13891) change factor (unirradiated): −0.7
- ID-4 (AL022726) change factor (unirradiated): −0.08
- IEX-1 (S81914) change factor (unirradiated): −0.08
- IFIT1; IFI56 (M24594) change factor (unirradiated): 0
- IFIT1; IFI56 (M24594, second entry) change factor (unirradiated): 0.05
- IFIT2; ISG-54K (M14660) change factor (unirradiated): 0.18
- IFIT2; ISG-54K (M14660, second entry) change factor (unirradiated): −0.21
- IFIT4; IFI60; cig5; RIGG (AF026941) change factor (unirradiated): −0.23
- IGF-BP 3; insulin-like growth factor-binding protein-3 gene (M35878) change factor (unirradiated): 0.29
- IGF-BP 3; insulin-like growth factor-binding protein-3 gene (M35878, second entry) change factor (unirradiated): 0.22
- IL6; Interleukin 6; IFNβα2a (X04430) change factor (unirradiated): 0.6
- IL18; IGIF (IFNγ inducing factor) (D49950) change factor (unirradiated): −0.8
- ILK; integrin-linked kinase (U40282) change factor (unirradiated): −0.23
- IRF-1; interferon regulatory factor 1 (L05072) change factor (unirradiated): 0.16
- IRF-7b; interferon regulatory factor 7b (U53831) change factor (unirradiated): 0.16
- IRF-9; p48; ISGF3γ (M97935) change factor (unirradiated): −0.18
- JUNB (M29039) change factor (unirradiated): −0.38
- JUNB (X51345) change factor (unirradiated): −0.5
- JUND (X56681) change factor (unirradiated): 0.6
- JUND (X56681, second entry) change factor (unirradiated): 0.01
- JUND (X56681, third entry) change factor (unirradiated): 0
- K-RAS (M54968) change factor (unirradiated): −0.6
- KINESIN-LIKE 2; HSET (AL021366) change factor (unirradiated): −0.34
- KINESIN-LIKE 2; HSET (D14678) change factor (unirradiated): −0.04
- KINESIN-LIKE 2; HSET (D14678, second entry) change factor (unirradiated): 0.03
- KINESIN-LIKE 5; KNSL5; MKLP-1; mitotic kinesin-like protein-1 (X67155) change factor (unirradiated): −0.15
- KINESIN-LIKE 6; KNSL6; MCAK; mitotic centromere-associated kinesin (U63743) change factor (unirradiated): −0.15
- KINESIN_LIKE 1; KNSL1; HKSP; EG5 (U37426) change factor (unirradiated): −0.04
- KLF4; EZF (epithelial Zn finger) (U70663) change factor (unirradiated): −0.17
- KRS-2; stress responsive serine/threonine protein kinase (U60207) change factor (unirradiated): −0.8
- KU (p70/p80) (M30938) change factor (unirradiated): −0.18
- LIM kinase 2 (limk-2) (D45906) change factor (unirradiated): −0.3
- Lekti (AJ228139) change factor (unirradiated): 0.48
- MAD3L; mitotic checkpoint kinase (AF053306) change factor (unirradiated): −0.18
- MAF-F (AL021977) change factor (unirradiated): −0.26
- MAP kinase phosphatase (mkp-2) (U48807) change factor (unirradiated): 0
- MAPK9; JNK2 (U09759) change factor (unirradiated): −0.36
- MAPK14; p38; csaids binding protein (csbp1) (L35263) change factor (unirradiated): −0.38
- MAPKK3b; MKK3b (D87116) change factor (unirradiated): −0.06
- MAPKK MEK5b (U71087) change factor (unirradiated): −0.16
- MAPKKK5; ASK1 (U67156) change factor (unirradiated): −0.06
- MEIS2 (AF017418) change factor (unirradiated): 0.26
- MMP10 (X07820) change factor (unirradiated): −1.3
- MMP-1 (M13509) change factor (unirradiated): −1.61
- MMP-3 (X05232) change factor (unirradiated): −0.46
